Source: patent US9795585B2, “Methods of using L-butylphthalide for the prevention and treatment of cerebral ischemia disease” (priority 2004, dated 2017)

Legend:
[1] = system: ischemic brain of decapitated mice; test: Ischemic cerebral metabolism of energy induced by decapitation of mice; assay type: in vivo, KunMing mice; details: NBP 50 and 100 mg/kg oral, sodium Phenobarbital 225 mg/kg ip.; decapitated 30 minutes after administration; 15 seconds ischemia; vs control group
Description: Experimental Animals: KunMing mice.
Test drug: injectable L-butylphthalide was formulated into an emulsion with Tween-80.
Experimental Methods: KunMing mice of 10 to 22 g were divided into 8 groups with 10 mice per group. dl-, d-, and l-NBP (50 and 100 mg/kg/d), sodium Phenobarbital (225 mg/kg ip.) and the vehicle were orally administered. Thirty minutes after administration, the mice were decapitated.
The time between the decapitation and homogenation, which was 15 seconds, was regarded as cerebral ischemic time. Centrifugation and isolation were conducted by the method of Folbergrova, and the contents of lactic acid, ATP and PCr were determined by enzymological method.

[2] = system: cerebral apoplexy in spontaneous hypertension rats; test: Cerebral apoplexy in salt-loaded spontaneous hypertensive rats; assay type: in vivo; details: 25 and 50 mg/kg/d oral
Description: Experimental Animals: spontaneous hypertensive rats of 6 weeks old. Experimental Methods: Spontaneous hypertensive rats of 6 weeks old were divided into 8 groups with 10 rats per group. 0.8 to 0.9 g per day of common salt was administered starting from week 6. […] The scores of neurological deficit and the time of death were recorded.

[3] = system: cerebral ischemia-reperfusion rats; test: Behavioral disorder and cerebral infarct area in cerebral ischemia-reperfusion rats (MCAO by nylon suture, 1.5 h); assay type: in vivo, male Wistar rats
Source text: Experimental Animal: The same as Example 1
Experimental Equipments: The same as Example 7
Experimental Methods: The rats were anesthetized, and fixed in lateral decubitus position. Under the operating microscope, a midline neck skin incision was made to expose the left common cartotid artery. The surrounding nerves and fascia from the bifurcation of common carotid artery to the vascular of basis cranii were removed.
The internal carotid artery was then separated and carefully separated free from vagus nerve. Pterygopalatine artery was ligated at the root of the internal carotid artery. A 6# needle for injection containing 3# nylon suture (diameter of 0.285 mm) was punctured into the free end of the external carotid artery, advancing the nylon suture into the blood vascular. The needle was carefully withdrawn, and the nylon suture was guided into the internal carotid artery from the distal end of the external carotid artery up till to Willis ring, so as to effectively block the middle cerebral artery.
Depending on the body weight, the distance from the inserted nylon suture to the bifurcation of common carotid artery was 18 to 20 mm. The free end of the external carotid artery and the nylon suture therein were ligated together, in order to prevent bleeding. The muscle and the skin were then sutured layer by layer, and penicillin was dropped to prevent infection. To effectively block the middle cerebral artery, the tip of the nylon suture was made round by burning with the flame, and coated with 0.1% of poly-L-lysine. The nylon suture was baked in a 60° C. oven for 1 hour.
Due to the ability of poly-L-lysine to binding the cell and the protein to the plastic surface, and thus allow the negative charged nylon suture changing into a positive charged one and attract the anion ionic part of the endothelial cell, the nylon suture was closely bond to the endothelial surface, so as to prevent the leakage of the blood from the surrounding of the suture. Only the internal carotoid artery was separated from the animals of pseudo-operation group.
At 1.5 hours after the initiation of MCAO, the nylon suture within the lumen of the internal carotoid artery was carefully withdrawn, and the internal carotoid artery was allowed to reperfusion. The rats were then placed back into the cage.

[4] = system: cerebral injury-induced cerebral ischemia in rats; test: Neural symptoms induced by cerebral injury in rats; assay type: in vivo, male Wistar rats; details: 50 mg/kg oral 5 minutes after cerebral injury; scored after 24 hours; vs vehicle control
Description: Experimental Animals: male Wistar rats
Experimental Methods: Cerebral injury in rats was caused by allowing a cone-shaped metal object weighing 220 g to freely fall from a position of 30 cm height and to strike the skull cap behind the left coronal suture. dl-, d-, and l-NBP (50 mg/kg) and the vehicle (control group) were orally administered after 5 minutes, and the behavioral changes were scored after 24 hours.

[5] = system: cerebral edema induced by cerebral artery ligation in rats; test: Cerebral edema induced by ligation of right middle cerebral artery; assay type: in vivo, male Wistar rats; details: 40 and 80 mg/kg oral 15 minutes after ligation; sacrificed after 24 hours
Description: Experimental Animals: the same as Example 1. Experimental Equipments: Oxygen analyzer. Experimental Methods: Cerebral edema was induced by the ligation of right middle cerebral artery of rats. After 15 minutes, dl-, d-, and l-NBP (40 and 80 mg/kg) were orally administered. The rats were sacrificed after 24 hours. The forebrain was removed, and the cerebral hemispheres on the left and right side were weighed. Dry weight was obtained by baking for 24 hours under 100° C. The weight of water in the brain tissue was thus calculated by subtracting of dry weight from wet weight. Then, the tissues was nitrified for 4 hours, and pH was adjusted by using HCl. Next, the ion selective electrode was connected onto the oxygen analyzer, and the concentrations of Na^+ and K^+ in the brain tissue were measured.

[6] = system: focal cerebral ischemia in rats; test: Memory disorder induced by focal cerebral ischemia (shuttle box, artery ligation by method of Tamura); assay type: in vivo, male Wistar rats; details: 15 and 30 mg/kg oral 15 min after operation; observed after 24 hours; vs vehicle control
Description: Experimental Animal: The same as Example 1. Experimental Equipment: Shuttle box. Experimental Methods: • 1. Rats were trained to acquire learning and memory; • 2. Artery ligation: Artery ligation was conducted on rats according to the method of Tamura. After 24 hours, the experiment of learning as in step (1) was repeatedly conducted on rats. • 3. Grouping and administration: the rats were divided into 9 groups, which were normal group, pseudo-operation group, ischemia control group, and groups of dl-, d-, and l-NBP (15 and 30 mg/kg). The rats were orally administered at 15 min after the operation, and the changes of latency of active and passive avoidance response were observed after 24 hours.

[7] = system: permanent cerebral ischemic rats; test: Behavioral disorder and cerebral infarct area in permanent cerebral ischemic rats (FeCl3 on middle cerebral artery); assay type: in vivo, Wistar rats
Description: Experimental Animal: The same as Example 1. Experimental Equipments: COOLPIX955 digital camera, 722 grating spectroscope, XHF-1 high-speed disperser, YKH-II liquid high-speed mixer, WZ-50C2 micro infusion pump. Experimental Methods: Wistar rats were anesthetized by intraperitoneally injecting 12% chloral hydrate in 350 mg/kg, and fixed in lateral decubitus position. The skin at the midpoint on the line from exterior auditory canal to canthus was cut. The muscle was separated layer by layer to expose zygomatic arch and the squamous part of temporal bone. The zygomatic arch was scissored and then placed under an operating microscope. A window of 2 mm diameter was drilled by using a dentistry drill at a position of 2 mm under the anterior joint between zygomatic arch and the squamous part of temporal bone, so as to expose the middle cerebral artery. A little piece of filter paper was applied onto the middle artery, and 10 μl of 50% FeCl3 aqueous solution was dripped onto the filter paper. The filter paper was removed after 30 min, and washed with physiological brine. Two to three drops of penicillin (1.6×10^5 U/mL) were added so as to prevent infection of the cut. Then the cut was sutured layer by layer.

normal rats = assay type: in vivo, Male wistar rats; details: 15 and 30 mg/kg oral; 30 minutes after administration
Description: Experimental Animals: Male wistar rats.
Experimental Equipments: SXP operating microscope, 62TZ-V model high frequency electrotome, solid positioner, Diamond Electro-Tech chemical microsensor 1231, two channel physiological parameter recorder.
Experimental Methods: • (1) dl-, d-, and l-NBP (15 and 30 mg/kg) and the vehicle were orally administered to the normal rats, and the changes of cerebral blood flow at different time after the administration were measured. • (2) ligation of cerebral artery was conducted on rats according to the method of Tamura. Oral administration was performed at 10 min after the operation. The rats were divided into 9 groups, which were normal group, pseudo-operation group, vehicle control group, and groups of dl-, d-, and l-NBP (15 and 30 mg/kg).

[8] = 24 hours after intravenous injection

CCC1(c2ccccc2)C(=O)NC(=O)NC1=O [sodium Phenobarbital]
content of ATP in the brain [1]: increased | content of PCr in the brain [1]: increased | content of lactic acid in the brain [1]: significantly decreased

CCCC[C@H]1OC(=O)c2ccccc21 [d-NBP, dextro-butylphthalide]
preventive and therapeutic effect on cerebral apoplexy (overall) [2]: not significant | neurological deficit scores (effect in words) [3, 8]: improvement | potency on neurological deficit scores compared among l, dl and d-NBP [3, 8]: no significant difference | cerebral infarct area (effect in words) ([3]; intravenous administration, effect increases with dose): significantly reduce | neural symptoms (behavioral changes scored) [4]: no significant effect | content of ATP in the brain [1]: no such significant effect | content of PCr in the brain [1]: no such significant effect | content of lactic acid in the brain [1]: no such significant effect | content of K+ in the brain [5]: no significant effect | content of Na+ in the brain [5]: no significant effect | content of water in the brain [5]: no significant effect | times of active avoidance [6]: not observed | cerebral infarct area (effect in words) ([7]; 2.5 mg/kg, tendency of reducing): not significant | reduction of cerebral infarct area ([7]; first of three doses, vs model control group): 27.2% | decrease of neurological deficit scores ([7]; high dose, i.v., 24 hours after administration): 28.1% | ED30 (neurological deficit scores) ([7]; i.v., 24 hours after administration): 12.4 mg/kg | neurological deficit scores (effect in words) ([7]; intravenous injection, vs model control group): improvement | decrease of neurological deficit scores ([7]; low dose, i.v., 24 hours after administration): 17.2% | decrease of neurological deficit scores ([7]; moderate dose, i.v., 24 hours after administration): 21.9% | reduction of cerebral infarct area ([7]; second of three doses, vs model control group): 32.7% | reduction of cerebral infarct area ([7]; third of three doses, vs model control group): 39.9% | ED40 (cerebral infarct area) ([7]; vs model control group): 10.3 mg/kg | cerebral blood flow rate in normal rats (normal rats): no such effects
